In this assay the target is T1, human M4 receptor (Homo sapiens, UniProt P08173).
T1 construct: expressed in transfected cells; host or cells: CHO cells
T1 sequence (P08173 1-479): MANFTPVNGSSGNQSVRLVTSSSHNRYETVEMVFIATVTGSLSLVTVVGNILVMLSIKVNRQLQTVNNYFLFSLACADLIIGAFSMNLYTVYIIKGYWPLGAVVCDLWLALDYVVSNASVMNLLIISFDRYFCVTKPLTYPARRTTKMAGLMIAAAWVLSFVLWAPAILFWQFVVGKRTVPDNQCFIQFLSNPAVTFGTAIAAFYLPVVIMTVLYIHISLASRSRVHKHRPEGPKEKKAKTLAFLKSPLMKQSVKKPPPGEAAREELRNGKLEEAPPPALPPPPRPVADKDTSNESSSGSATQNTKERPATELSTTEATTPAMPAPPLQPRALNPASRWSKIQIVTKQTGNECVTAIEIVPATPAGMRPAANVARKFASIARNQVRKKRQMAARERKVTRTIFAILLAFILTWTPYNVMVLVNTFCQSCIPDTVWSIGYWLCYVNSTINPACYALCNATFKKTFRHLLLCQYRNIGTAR
The experiment in a line: Radioligand ([3H]N-methylscopolamine) binding assay, membranes from CHO cells expressing human M4 receptor. The settings on record: Ki against human M4 receptor; membranes from CHO cells; tritiated N-methylscopolamine 1.5 nM; read-out: K. The procedure, abridged:
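Competition binding used CHO-cell membranes expressing human M4 with 1.5 nM [3H]N-methylscopolamine and twelve compound concentrations ([…]). Incubation was 90 minutes at 37 °C in 50 mM HEPES, 100 mM NaCl, 5 mM MgCl2, 1 mM EDTA, pH 7.4. Bound ligand was collected by filtration onto PEI-treated glass fibre for Ki.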
`C[C@@H]1CN(c2cnc(C(F)(F)F)cn2)C[C@H](C)N1C(=O)OC1(C(F)F)CC2(CN(Cc3ccccc3)C2)C1` [Compound 342, 2-benzyl-6-(difluoromethyl)-2-azaspiro[3.3]heptan-6-yl (2R,6S)-2,6-dimethyl-4-[5-(trifluoromethyl)pyrazin-2-yl]piperazine-1-carboxylate]: the Ki fell in the range of 100 to 1000 nM. For `C[C@@H]1CN(c2ncc(C(F)(F)F)cn2)C[C@@H](C)N1C(=O)OC1(C(F)F)CC2(CN(Cc3ccccc3)C2)C1` [Compound 344, 2-benzyl-6-(difluoromethyl)-2-azaspiro[3.3]heptan-6-yl (2R,6R)-2,6-dimethyl-4-[5-(trifluoromethyl)pyrimidin-2-yl]piperazine-1-carboxylate], the Ki was in the range of 10 to 100 nM. For `C[C@@H]1CN(c2ncc(C(F)(F)F)cn2)[C@@H](C)CN1C(=O)OC1(C(F)F)CC2(CN(Cc3ccccc3)C2)C1` [Compound 346, 2-benzyl-6-(difluoromethyl)-2-azaspiro[3.3]heptan-6-yl (2R,5S)-2,5-dimethyl-4-[5-(trifluoromethyl)pyrimidin-2-yl]piperazine-1-carboxylate], the Ki was in the range of 10 to 100 nM. Consider `C[C@@H]1CN(c2cnc(C(F)(F)F)cn2)[C@@H](C)CN1C(=O)OC1(C(F)F)CC2(CN(Cc3ccccc3)C2)C1` [Compound 347, 2-benzyl-6-(difluoromethyl)-2-azaspiro[3.3]heptan-6-yl (2R,5S)-2,5-dimethyl-4-[5-(trifluoromethyl)pyrazin-2-yl]piperazine-1-carboxylate], for which the Ki was 100 to 1000 nM. For `C[C@@H]1CN(c2ncc(C(F)(F)F)cn2)CCN1C(=O)OC1(C(F)F)CC2(CN(Cc3ccccc3)C2)C1` [Compound 349, 2-benzyl-6-(difluoromethyl)-2-azaspiro[3.3]heptan-6-yl (2R)-2-methyl-4-[5-(trifluoromethyl)pyrimidin-2-yl]piperazine-1-carboxylate] the value was 10 to 100 nM; for `C[C@@H]1CN(c2ncc(C(F)(F)F)cn2)C[C@H](C)N1C(=O)OC1(C)CC2(CN(Cc3ccccc3)C2)C1` [Compound 352, 2-benzyl-6-methyl-2-azaspiro[3.3]heptan-6-yl (2R,6S)-2,6-dimethyl-4-[5-(trifluoromethyl)pyrimidin-2-yl]piperazine-1-carboxylate], 100 to 1000 nM; for `C[C@@H]1CN(c2cnc(C(F)(F)F)cn2)C[C@H](C)N1C(=O)OC1(C)CC2(CN(Cc3ccccc3)C2)C1` [Compound 353, 2-benzyl-6-methyl-2-azaspiro[3.3]heptan-6-yl (2R,6S)-2,6-dimethyl-4-[5-(trifluoromethyl)pyrazin-2-yl]piperazine-1-carboxylate], 10 to 100 nM.

Regarding `C[C@@H]1CN(c2ncc(C(F)(F)F)cn2)C[C@@H](C)N1C(=O)OC1(C)CC2(CN(Cc3ccccc3)C2)C1` [Compound 355, 2-benzyl-6-methyl-2-azaspiro[3.3]heptan-6-yl (2R,6R)-2,6-dimethyl-4-[5-(trifluoromethyl)pyrimidin-2-yl]piperazine-1-carboxylate], the Ki lay within 10 to 100 nM. Turning to `C[C@@H]1CN(c2cnc(C(F)(F)F)cn2)C[C@@H](C)N1C(=O)OC1(C)CC2(CN(Cc3ccccc3)C2)C1` [Compound 356, 2-benzyl-6-methyl-2-azaspiro[3.3]heptan-6-yl (2R,6R)-2,6-dimethyl-4-[5-(trifluoromethyl)pyrazin-2-yl]piperazine-1-carboxylate], the Ki was 10 to 100 nM.

As for `C[C@@H]1CN(c2ncc(C(F)(F)F)cn2)[C@@H](C)CN1C(=O)OC1(C)CC2(CN(Cc3ccccc3)C2)C1` [Compound 358, 2-benzyl-6-methyl-2-azaspiro[3.3]heptan-6-yl (2R,5S)-2,5-dimethyl-4-[5-(trifluoromethyl)pyrimidin-2-yl]piperazine-1-carboxylate], the Ki was under 10 nM. In the case of `[2H]c1c([2H])c([2H])c(C([2H])([2H])N2CC3(CC(OC(=O)N4C[C@H](C)N(c5cnc(C(F)(F)F)cn5)C[C@H]4C)C3)C2)c([2H])c1[2H]` [Compound 361, 2-[(^2H5)phenyl(^2H2)methyl]-2-azaspiro[3.3]heptan-6-yl (2R,5S)-2,5-dimethyl-4-[5-(trifluoromethyl)pyrazin-2-yl]piperazine-1-carboxylate], the Ki lay in the range of 10 to 100 nM. Regarding `C[C@@H]1CN(c2cnc3cc(F)ccc3n2)[C@@H](C)CN1C(=O)OC1CC2(C1)CN(Cc1ccccc1)C2` [Compound 363, 2-benzyl-2-azaspiro[3.3]heptan-6-yl (2R,5S)-4-(6-fluoroquinoxalin-2-yl)-2,5-dimethylpiperazine-1-carboxylate], the Ki fell in the range of 10 to 100 nM. For `C[C@@H]1CN(c2nc3ccc(C(F)(F)F)cc3s2)C[C@H](C)N1C(=O)OC1CC2(C1)CN(Cc1ccccc1)C2` [Compound 364, 2-benzyl-2-azaspiro[3.3]heptan-6-yl (2R,6S)-2,6-dimethyl-4-[6-(trifluoromethyl)-1,3-benzothiazol-2-yl]piperazine-1-carboxylate], the Ki is under 10 nM. Turning to `C[C@@H]1CN(c2nc3cc(C(F)(F)F)cnc3s2)C[C@H](C)N1C(=O)OC1CC2(C1)CN(Cc1ccccc1)C2` [Compound 365, 2-benzyl-2-azaspiro[3.3]heptan-6-yl (2R,6S)-2,6-dimethyl-4-[6-(trifluoromethyl)-[1,3]thiazolo[5,4-b]pyridin-2-yl]piperazine-1-carboxylate], the Ki is under 10 nM.

`C[C@@H]1CN(c2nc3cc(C(F)(F)F)cnc3s2)C[C@@H](C)N1C(=O)OC1CC2(C1)CN(Cc1ccccc1)C2` [Compound 366, 2-benzyl-2-azaspiro[3.3]heptan-6-yl (2R,6R)-2,6-dimethyl-4-[6-(trifluoromethyl)-[1,3]thiazolo[5,4-b]pyridin-2-yl]piperazine-1-carboxylate]: the Ki was 10 to 100 nM. In the case of `C[C@@H]1CN(c2nc3cc(C(F)(F)F)cnc3s2)[C@@H](C)CN1C(=O)OC1CC2(C1)CN(Cc1ccccc1)C2` [Compound 367, 2-benzyl-2-azaspiro[3.3]heptan-6-yl (2R,5S)-2,5-dimethyl-4-[6-(trifluoromethyl)-[1,3]thiazolo[4,3-b]pyridin-2-yl]piperazine-1-carboxylate] it was under 10 nM. On to `C[C@@H]1CN(c2nc3ccc(F)cc3s2)C[C@H](C)N1C(=O)OC1CC2(C1)CN(Cc1ccccc1)C2` [Compound 368, 2-benzyl-2-azaspiro[3.3]heptan-6-yl (2R,6S)-4-(6-fluoro-1,3-benzothiazol-2-yl)-2,6-dimethylpiperazine-1-carboxylate], for which the Ki was under 10 nM. With `C[C@@H]1CN(c2nc3ccc(F)cc3s2)C[C@@H](C)N1C(=O)OC1CC2(C1)CN(Cc1ccccc1)C2` [Compound 369, 2-benzy-2-azaspiro[3.3]heptan-6-yl (2R,6R)-4-(6-fluoro-1,3-benzothiazol-2-yl)-2,6-dimethylpiperazine-1-carboxylate], the Ki was 10 to 100 nM. Regarding `C[C@@H]1CN(c2nc3ccc(F)cc3s2)[C@@H](C)CN1C(=O)OC1CC2(C1)CN(Cc1ccccc1)C2` [Compound 370, 2-benzyl-2-azaspiro[3.3]heptan-6-yl (2R,5S)-4-(6-fluoro-1,3-benzothiazol-2-yl)-2,5-dimethylpiperazine-1-carboxylate], the Ki is under 10 nM. For `C[C@@H]1CN(c2nc3ccc(C(F)(F)F)cc3s2)[C@@H](C)CN1C(=O)OC1CC2(C1)CN(Cc1ccccc1)C2` [Compound 372, 2-benzyl-2-azaspiro[3.3]heptan-6-yl (2R,5S)-2,5-dimethyl-4-[6-(trifluoromethyl)-1,3-benzothiazol-2-yl]piperazine-1-carboxylate] the value was under 10 nM.

The values above are taken from patent US20230129359A1, “MUSCARINIC RECEPTOR 4 ANTAGONISTS AND METHODS OF USE” (Neurocrine Biosciences, Inc., priority 2020, published 2023).
